Experimental data as given in US10772934B2 (Longevity Biotech, Inc., priority 2010, dated 2020).
No end group written: not given here.

How the values were obtained:
VIPR1 = biological target: T1, VIPR1 (Homo sapiens, UniProt P32241); assay: cAMP Hunter cell line functional assay, agonist mode (DiscoveRx HitHunter cAMP XS+); format: cell-based; conditions: for Mean RLU: Cell Line VIPR1, Mode Agonist, Readout cAMP
T1 sequence (P32241 31-457): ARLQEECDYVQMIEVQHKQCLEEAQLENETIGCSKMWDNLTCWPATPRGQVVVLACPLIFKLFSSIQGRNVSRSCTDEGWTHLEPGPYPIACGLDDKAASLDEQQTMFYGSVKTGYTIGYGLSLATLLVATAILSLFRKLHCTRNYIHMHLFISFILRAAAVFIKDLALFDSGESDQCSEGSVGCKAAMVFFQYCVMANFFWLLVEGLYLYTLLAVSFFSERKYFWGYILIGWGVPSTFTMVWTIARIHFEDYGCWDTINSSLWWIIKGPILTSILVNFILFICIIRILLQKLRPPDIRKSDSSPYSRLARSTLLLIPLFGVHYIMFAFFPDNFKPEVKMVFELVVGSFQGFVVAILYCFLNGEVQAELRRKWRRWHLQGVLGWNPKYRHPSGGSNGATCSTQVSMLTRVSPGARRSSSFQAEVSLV
Description: (§1) Once it was established that the cells were healthy and growing normally, cells were passaged from flasks using cell dissociation reagent buffer and seeded into white walled clear bottom 384-well microplates for compound profiling. For profiling, cells were seeded at a density of 10,000 cells per well in a total volume of 20 μL and were allowed to adhere and recover overnight prior to compound addition. cAMP modulation was determined using the DiscoveRx HitHunter cAMP XS+ assay.
(§2) For profiling compound in agonist mode, the cells were incubated in the presence of compound at 37° C. for 30 minutes. […] After appropriate compound incubation, assay signal was generated through incubation with DiscoverX lysis cocktail according to the manufacturers standard protocol. Dose curves were plotted using GraphPad Prism or Activity Base. Percentage activity is calculated using the following formula: % Activity=100%×(mean RLU of test sample−mean RLU of vehicle control)/(mean RLU of MAX control−mean RLU of vehicle control).

VIPR2 = biological target: T2, VIPR2 (Homo sapiens, UniProt P41587); assay: as above; format: cell-based; conditions: for Mean RLU: Cell Line VIPR2, Mode Agonist, Readout cAMP
T2 construct: host or cells: cAMP Hunter cell lines (CHO-K1 is named only in the prophetic assay)
T2 sequence (P41587 24-438): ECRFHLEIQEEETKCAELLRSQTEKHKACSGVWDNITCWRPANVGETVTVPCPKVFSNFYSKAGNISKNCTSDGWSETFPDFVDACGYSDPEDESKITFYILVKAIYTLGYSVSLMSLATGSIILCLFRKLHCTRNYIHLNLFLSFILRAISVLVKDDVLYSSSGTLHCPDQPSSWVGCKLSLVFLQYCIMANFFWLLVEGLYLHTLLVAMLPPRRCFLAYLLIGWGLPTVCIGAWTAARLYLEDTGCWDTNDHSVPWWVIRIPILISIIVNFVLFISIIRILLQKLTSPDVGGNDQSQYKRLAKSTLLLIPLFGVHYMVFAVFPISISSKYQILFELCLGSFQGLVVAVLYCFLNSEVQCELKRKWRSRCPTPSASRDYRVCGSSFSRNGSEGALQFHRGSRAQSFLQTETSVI
Description: as §1, §2

[1] = in the blood stream; cited from earlier work
calcitonin (CT) receptor = conditions: cited from earlier work
[2] = biological target: calcitonin-gene related peptide (CGRP) receptors (Homo sapiens, UniProt O60894+Q16602); conditions: cited from earlier work
Chain of calcitonin-gene related peptide (CGRP) receptors (Q16602 23-461): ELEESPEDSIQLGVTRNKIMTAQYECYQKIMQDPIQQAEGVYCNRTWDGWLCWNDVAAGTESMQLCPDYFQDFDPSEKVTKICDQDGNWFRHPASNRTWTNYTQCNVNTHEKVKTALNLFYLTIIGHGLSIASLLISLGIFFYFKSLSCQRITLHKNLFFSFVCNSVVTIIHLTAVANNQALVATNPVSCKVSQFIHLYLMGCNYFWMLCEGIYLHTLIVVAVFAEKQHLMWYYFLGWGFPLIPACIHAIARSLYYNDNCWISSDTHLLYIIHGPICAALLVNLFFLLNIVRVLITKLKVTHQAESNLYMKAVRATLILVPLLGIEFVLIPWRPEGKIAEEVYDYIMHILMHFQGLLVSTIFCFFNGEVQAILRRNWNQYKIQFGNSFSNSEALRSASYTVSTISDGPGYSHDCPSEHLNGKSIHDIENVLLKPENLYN
Chain of calcitonin-gene related peptide (CGRP) receptors (O60894 27-148 partner): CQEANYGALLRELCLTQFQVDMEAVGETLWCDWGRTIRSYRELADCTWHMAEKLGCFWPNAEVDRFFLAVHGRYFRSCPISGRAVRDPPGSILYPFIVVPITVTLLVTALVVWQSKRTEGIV

adrenomedullin receptors = adrenomedullin receptors (Homo sapiens, UniProt Q16602); conditions: cited from earlier work
Chain of adrenomedullin receptors (Q16602 23-461): as the sequence (Q16602 23-461) above

G-actin monomers = conditions: 1:1 ratio; read-out: Kd, sequestration of G-actin monomers; cited from earlier work
Glucagon receptor = biological target: T3, Glucagon receptor (Rattus norvegicus, UniProt P30082); conditions: cited from earlier work
T3 construct: from tissue; host or cells: rat liver membranes
T3 sequence (P30082 27-485): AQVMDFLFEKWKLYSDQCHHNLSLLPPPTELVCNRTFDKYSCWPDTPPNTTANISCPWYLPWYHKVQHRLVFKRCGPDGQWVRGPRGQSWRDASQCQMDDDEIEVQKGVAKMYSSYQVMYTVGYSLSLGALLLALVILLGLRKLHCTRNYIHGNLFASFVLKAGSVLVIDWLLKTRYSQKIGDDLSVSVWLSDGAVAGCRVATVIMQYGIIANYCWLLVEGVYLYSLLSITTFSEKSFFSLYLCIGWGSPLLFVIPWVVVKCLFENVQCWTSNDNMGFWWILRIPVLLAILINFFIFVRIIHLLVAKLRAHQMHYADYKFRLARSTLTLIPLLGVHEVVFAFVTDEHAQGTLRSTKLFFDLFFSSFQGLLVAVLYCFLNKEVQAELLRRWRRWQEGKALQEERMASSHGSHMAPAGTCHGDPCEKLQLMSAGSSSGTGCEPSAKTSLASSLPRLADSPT

[3] = test system: vasoactive intestinal peptide (VIP); conditions: read-out: IC50, selective VIP antagonist; cited from earlier work
glucagon receptors = glucagon receptors (Homo sapiens, UniProt P47871); conditions: cited from earlier work
Chain of glucagon receptors (P47871 26-477): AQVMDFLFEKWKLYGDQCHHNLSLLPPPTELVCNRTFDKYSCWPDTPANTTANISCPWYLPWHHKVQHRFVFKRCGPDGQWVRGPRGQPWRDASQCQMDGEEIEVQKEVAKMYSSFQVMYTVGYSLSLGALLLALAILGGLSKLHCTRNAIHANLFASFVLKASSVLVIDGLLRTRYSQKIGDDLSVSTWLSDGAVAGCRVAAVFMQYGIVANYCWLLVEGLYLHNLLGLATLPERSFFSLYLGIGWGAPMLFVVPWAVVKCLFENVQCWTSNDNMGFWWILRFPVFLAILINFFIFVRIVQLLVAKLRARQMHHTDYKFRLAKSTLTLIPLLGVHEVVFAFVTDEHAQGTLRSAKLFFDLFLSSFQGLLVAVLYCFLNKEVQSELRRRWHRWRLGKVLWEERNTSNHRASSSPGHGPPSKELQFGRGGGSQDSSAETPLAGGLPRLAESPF

secretin receptors = secretin receptors (Homo sapiens, UniProt P47872); conditions: cited from earlier work
Chain of secretin receptors (P47872 23-440): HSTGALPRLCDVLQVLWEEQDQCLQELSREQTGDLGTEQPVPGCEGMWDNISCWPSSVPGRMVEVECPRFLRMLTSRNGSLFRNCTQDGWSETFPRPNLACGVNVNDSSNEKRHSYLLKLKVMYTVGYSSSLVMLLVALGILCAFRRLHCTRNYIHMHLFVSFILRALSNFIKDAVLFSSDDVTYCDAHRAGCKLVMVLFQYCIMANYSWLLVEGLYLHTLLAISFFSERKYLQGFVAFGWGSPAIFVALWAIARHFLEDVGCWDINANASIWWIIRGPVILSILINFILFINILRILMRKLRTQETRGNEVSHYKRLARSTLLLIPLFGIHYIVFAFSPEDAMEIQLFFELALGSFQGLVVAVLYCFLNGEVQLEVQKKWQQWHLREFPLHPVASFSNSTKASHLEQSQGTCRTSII

GRF receptors = biological target: T4, GRF receptors (Homo sapiens, UniProt Q02643); conditions: cited from earlier work
T4 sequence (Q02643 23-423): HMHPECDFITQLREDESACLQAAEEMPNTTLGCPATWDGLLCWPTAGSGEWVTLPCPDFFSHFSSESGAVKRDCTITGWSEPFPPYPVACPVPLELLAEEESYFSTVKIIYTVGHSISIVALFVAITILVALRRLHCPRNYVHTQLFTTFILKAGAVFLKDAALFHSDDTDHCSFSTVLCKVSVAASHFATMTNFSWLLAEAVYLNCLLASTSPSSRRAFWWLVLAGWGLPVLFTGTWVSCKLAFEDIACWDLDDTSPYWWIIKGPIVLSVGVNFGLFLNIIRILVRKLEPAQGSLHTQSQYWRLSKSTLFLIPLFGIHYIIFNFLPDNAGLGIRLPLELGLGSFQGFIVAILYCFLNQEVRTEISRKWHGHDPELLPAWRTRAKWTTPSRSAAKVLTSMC

## CC[C@H](C)[C@H](NC(=O)[C@H]1CCC[C@@H]1NC(=O)[C@H](CC(N)=O)NC(=O)[C@H](CC(C)C)NC(=O)[C@H](Cc1ccc(O)cc1)NC(=O)[C@H]1CNC[C@@H]1NC(=O)[C@H](CCCCN)NC(=O)[C@@H](NC(=O)[C@H]1CCC[C@@H]1NC(=O)[C@H](CC(C)C)NC(=O)[C@H](CCC(N)=O)NC(=O)[C@H](CCCCN)NC(=O)[C@H]1CNC[C@@H]1NC(=O)[C@H](CC(C)C)NC(=O)[C@H](CCCNC(=N)N)NC(=O)[C@H]1CCC[C@@H]1NC(=O)[C@H](Cc1ccc(O)cc1)NC(=O)[C@H](CC(N)=O)NC(=O)[C@H](CC(=O)O)NC(=O)[C@@H](NC(=O)[C@H](Cc1ccccc1)NC(=O)[C@@H](NC(=O)[C@H](C)NC(=O)[C@H](CC(=O)O)NC(=O)[C@H](CO)NC(=O)[C@@H](N)Cc1c[nH]cn1)C(C)C)[C@@H](C)O)C(C)C)C(=O)N[C@@H](CC(C)C)C(=O)NC(CC(N)=O)CC(N)=O [Compound 8, HSDAVFTDNYXRLZKQLXVKZYLNXILN]
VIPR1; [Compound] 1.00E−08 M
  Mean RLU: 13700.0 RLU
VIPR1; [Compound] 1.00E−09 M
  Mean RLU: 10600.0 RLU
VIPR1; [Compound] 1.00E−10 M
  Mean RLU: 9060.0 RLU
VIPR1; [Compound] 1.00E−11 M
  Mean RLU: 10500.0 RLU
VIPR1; [Compound] 1.00E−12 M
  Mean RLU: 10340.0 RLU
VIPR1; [Compound] 5.00E−08 M
  Mean RLU: 95460.0 RLU
VIPR1; [Compound] 5.00E−09 M
  Mean RLU: 13200.0 RLU
VIPR1; [Compound] 5.00E−10 M
  Mean RLU: 9820.0 RLU
VIPR1; agonist mode, FIG. 3
  activation of VIPR1: fully activate
VIPR2; [Compound] 1.00E−07 M
  Mean RLU: 8920.0 RLU
VIPR2; [Compound] 1.00E−08 M
  Mean RLU: 9560.0 RLU
VIPR2; [Compound] 1.00E−09 M
  Mean RLU: 8560.0 RLU
VIPR2; [Compound] 1.00E−10 M
  Mean RLU: 7560.0 RLU
VIPR2; [Compound] 1.00E−11 M
  Mean RLU: 9280.0 RLU
VIPR2; [Compound] 1.00E−12 M
  Mean RLU: 8300.0 RLU
VIPR2; [Compound] 5.00E−07 M
  Mean RLU: 10200.0 RLU
VIPR2; [Compound] 5.00E−08 M
  Mean RLU: 9200.0 RLU
VIPR2; [Compound] 5.00E−09 M
  Mean RLU: 8560.0 RLU
VIPR2; [Compound] 5.00E−10 M
  Mean RLU: 9820.0 RLU
VIPR2; agonist mode
  interaction with VIPR2: does not interact substantially
VIPR2; agonist mode, FIG. 3
  activation of VIPR2: not activate

## CC[C@H](C)[C@H](NC(=O)[C@H](CO)NC(=O)[C@H](CC(N)=O)NC(=O)[C@H](CC(C)C)NC(=O)[C@H](Cc1ccc(O)cc1)NC(=O)[C@H](CCCCN)NC(=O)[C@H](CCCCN)NC(=O)[C@@H](NC(=O)[C@H](C)NC(=O)[C@H](CCSC)NC(=O)[C@H](CCC(N)=O)NC(=O)[C@H](CCCCN)NC(=O)[C@H](CCCN=C(N)N)NC(=O)[C@H](CC(C)C)NC(=O)[C@H](CCCN=C(N)N)NC(=O)[C@@H](NC(=O)[C@H](Cc1ccc(O)cc1)NC(=O)[C@H](CC(N)=O)NC(=O)[C@H](CC(=O)O)NC(=O)[C@@H](NC(=O)[C@H](Cc1ccccc1)NC(=O)[C@@H](NC(=O)[C@H](C)NC(=O)[C@H](CC(=O)O)NC(=O)[C@H](CO)NC(=O)[C@@H](N)Cc1c[nH]cn1)C(C)C)[C@@H](C)O)[C@@H](C)O)C(C)C)C(=O)N[C@@H](CC(C)C)C(=O)N[C@@H](CC(N)=O)C(N)=O [VIP]
[1]
  half-life: about two

## Calcitoninreceptor-stimulating peptide-1 (SCNTATCMTHRLVGLLSRSGSMVRSNLLPTKMGFKVFG-NH2; ends and bridges not checked; UniProt Q862B1 81-118, looked up)
Calcitonin (CT) receptor; calcitonin (CT) receptor
  ED50, stimulation of cAMP formation: 0.2 nM
Calcitonin (CT) receptor; greater than CT
  Potency in stimulating cAMP formation relative to CT: 350 fold
[2]
  Activity at CGRP receptors: Displays no activity at calcitonin-gene related peptide (CGRP) and adrenomedullin
Adrenomedullin receptors
  Activity at adrenomedullin receptors: Displays no activity at calcitonin-gene related peptide (CGRP) and adrenomedullin

## Thymosin β4
G-actin monomers
  Kd: 700 to 1000 nM

## des-His1-{Glu9}-Glucagon (1-29) amide
Glucagon receptor
  Agonist activity at the glucagon receptor: adenylyl cyclase activation in rat liver membranes); displays no agonist activity.
Glucagon receptor; rat liver membranes
  pA2 for inhibition of glucagon-induced adenylyl cyclase activation: (Glucagon receptor antagonist (pA2 = 7.2 for inhibition of glucagon-induced

## {D-p-Cl-Phe6,Leu17}-VIP
[3]
  IC50: 126 nM
Glucagon receptors
  Activity on glucagon receptors: Displays no activity on glucagon, secretin or GRF receptors.)
Secretin receptors
  Activity on secretin receptors: Displays no activity on glucagon, secretin or GRF receptors.)
GRF receptors
  Activity on GRF receptors: Displays no activity on glucagon, secretin or GRF receptors.)
